Columns and labels:
[1] = biological target: LIM domain kinase 2 (Homo sapiens) (UniProt P53671); test: Inhibition of recombinant human LIMK2 assessed as residual activity after 1 uM by radiometry assay relative to control
[2] = biological target: Mitogen-activated protein kinase kinase kinase 9 (Homo sapiens) (UniProt P80192); test: Inhibition of recombinant human MLK1 (134 to 414 residues) assessed as residual activity at 1 uM using casein as substrate incubated for 40 mins in presence of [gamma-33ATP by scintillation counting based radiometry assay relative to control
[3] = biological target: Serine/threonine-protein kinase WNK1 (Homo sapiens) (UniProt Q9H4A3); test: Inhibition of human WNK1 (1 to 491 residues) assessed as residual activity at 1 uM using myelin basic protein as substrate measured after 120 mins in presence of [gamma33P]ATP by scintillation counting method relative to control
[4] = biological target: 5'-AMP-activated protein kinase catalytic subunit alpha-2 (Homo sapiens) (UniProt P54646); test: Inhibition of recombinant full length human AMPKalpha2 assessed as residual activity at 1 uM using AMARAASAAALAR as substrate incubated for 40 mins in presence of [gamma-33ATP] by scintillation counting based radiometry assay relative to control
[5] = biological target: Serine/threonine-protein kinase Nek11 (Homo sapiens) (UniProt Q8NG66); test: Inhibition of recombinant full length human NEK11 assessed as residual activity at 1 uM myelin basic protein as substrate measured after 40 mins in presence of [gamma33P]ATP by scintillation counting method relative to control
[6] = biological target: Serine/threonine-protein kinase SIK3 (Homo sapiens) (UniProt Q9Y2K2); test: Inhibition of recombinant human SIK3 (1 to 307 residues) assessed as residual activity at 1 uM using KKKVSRSGLYRSPSMPENLNRPR as substrate measured after 40 mins in presence of [gamma33P]ATP by scintillation counting method relative to control
[7] = species on record: Homo sapiens; test: Inhibition of recombinant human MARK1 V16E/T20S mutant (2 to end residues) assessed as residual activity at 1 uM using KKKVSRSGLYRSPSMPENLNRPR as substrate incubated for 40 mins in presence of [gamma-33ATP by scintillation counting based radiometry assay relative to control
[8] = biological target: Eukaryotic translation initiation factor 2-alpha kinase 3 (Homo sapiens) (UniProt Q9NZJ5); test: Inhibition of human PEK (536 to end residues) assessed as residual activity at 1 uM using RSRSRSRSRSRSRSR as substrate measured after 40 mins in presence of [gamma33P]ATP by scintillation counting method relative to control
[9] = biological target: Calcium/calmodulin-dependent protein kinase type 1B (Homo sapiens) (UniProt Q6P2M8); test: Inhibition of recombinant full length human CaMKIbeta assessed as residual activity at 1 uM using KKLRRTLSFAEP as substrate incubated for 40 mins in presence of [gamma-33ATP] by scintillation counting based radiometry assay relative to control
[10] = biological target: Testis-specific serine/threonine-protein kinase 1 (Homo sapiens) (UniProt Q9BXA7); test: Inhibition of recombinant full-length human TSSK1 at 1 uM assessed as residual activity at 1 uM using KKKVSRSGLYRSPSMPENLNRPR as substrate measured after 120 mins in presence of [gamma33P]ATP by scintillation counting method relative to control
[11] = species on record: Homo sapiens; test: Inhibition of recombinant full-length human PI3K p110delta/p85alpha N253S mutant at 1 uM assessed as residual activity at 1 uM using phosphatidylinositol-4, 5-bisphosphate as substrate measured after 40 mins by fluorescence assay
[12] = biological target: Protein kinase C zeta type (Homo sapiens) (UniProt Q05513); test: Inhibition of recombinant human PKCzeta (2 to end residues) assessed as residual activity at 1 uM using ERMRPRKRQGSVRRRV as substrate measured after 40 mins in presence of [gamma33P]ATP by scintillation counting method relative to control
[13] = biological target: Fibroblast growth factor receptor 2 (Homo sapiens) (UniProt P21802); test: Inhibition of recombinant human FGFR2 (456 to 770 residues) assessed as residual activity at 1 uM using poly(Glu, Tyr) 4:1 as substrate at 40 mins in presence of [gamma-33ATP] by scintillation counting based radiometry assay relative to control
[14] = biological target: PAS domain-containing serine/threonine-protein kinase (Homo sapiens) (UniProt Q96RG2); test: Inhibition of recombinant human PASK (995 to end residues) assessed as residual activity at 1 uM using KKLNRTLSFAEPG as substrate measured after 40 mins in presence of [gamma33P]ATP by scintillation counting method relative to control
[15] = biological target: FKBP12A/mTOR (Homo sapiens) (UniProt P62942+P42345); test: Inhibition of recombinant full length human mTOR/FKBP12 assessed as residual activity at 1 uM measured after 40 mins in presence of [gamma33P]ATP by scintillation counting based radiometry assay relative to control; type: protein-complex assay
[16] = biological target: Tyrosine-protein kinase ABL2 (Homo sapiens) (UniProt P42684); test: Inhibition of human Arg (38 to end residues) assessed as residual activity at 1 uM using EAIYAAPFAKKK as substrate incubated for 40 mins in presence of [gamma-33ATP] by scintillation counting based radiometry assay relative to control
[17] = tested on: Epidermal growth factor receptor (Homo sapiens), P00533 [L861Q]; test: Inhibition of recombinant human EGFR L861Q mutant (696 to end residues) assessed as residual activity at 1 uM using poly(Glu, Tyr) 4:1 as substrate at 40 mins in presence of [gamma-33ATP] by scintillation counting based radiometry assay relative to control
[18] = biological target: Serine/threonine-protein kinase N2 (Homo sapiens) (UniProt Q16513); test: Inhibition of recombinant human PRK2 (501 to end residues) assessed as residual activity at 1 uM using AKRRRLSSLRA as substrate measured after 40 mins in presence of [gamma33P]ATP by scintillation counting method relative to control
[19] = tested on: Angiopoietin-1 receptor (Homo sapiens), Q02763 [Q939H,Q940H,Y897S]; test: Inhibition of human Tie2 Q939H/Q940H/Y897S mutant (771 to end residues) assessed as residual activity at 1 uM using EFPIYDFLPAKKK as substrate measured after 40 mins in presence of [gamma33P]ATP by scintillation counting method relative to control
[20] = biological target: NUAK family SNF1-like kinase 2 (Homo sapiens) (UniProt Q9H093); test: Inhibition of recombinant human full length NUAK2 assessed as residual activity at 1 uM using KKKVSRSGLYRSPSMPENLNRPR as substrate measured after 40 mins in presence of [gamma33P]ATP by scintillation counting method relative to control
[21] = biological target: Serine/threonine-protein kinase PAK 6 (Homo sapiens) (UniProt Q9NQU5); test: Inhibition of recombinant human PAK6 (382 to end residues) assessed as residual activity at 1 uM using RRRLSFAEPG as substrate measured after 40 mins in presence of [gamma33P]ATP by scintillation counting method relative to control

Serine/threonine-protein kinase Nek11 (Homo sapiens), sequence (Q8NG66 whole entry, the tested form may be a part): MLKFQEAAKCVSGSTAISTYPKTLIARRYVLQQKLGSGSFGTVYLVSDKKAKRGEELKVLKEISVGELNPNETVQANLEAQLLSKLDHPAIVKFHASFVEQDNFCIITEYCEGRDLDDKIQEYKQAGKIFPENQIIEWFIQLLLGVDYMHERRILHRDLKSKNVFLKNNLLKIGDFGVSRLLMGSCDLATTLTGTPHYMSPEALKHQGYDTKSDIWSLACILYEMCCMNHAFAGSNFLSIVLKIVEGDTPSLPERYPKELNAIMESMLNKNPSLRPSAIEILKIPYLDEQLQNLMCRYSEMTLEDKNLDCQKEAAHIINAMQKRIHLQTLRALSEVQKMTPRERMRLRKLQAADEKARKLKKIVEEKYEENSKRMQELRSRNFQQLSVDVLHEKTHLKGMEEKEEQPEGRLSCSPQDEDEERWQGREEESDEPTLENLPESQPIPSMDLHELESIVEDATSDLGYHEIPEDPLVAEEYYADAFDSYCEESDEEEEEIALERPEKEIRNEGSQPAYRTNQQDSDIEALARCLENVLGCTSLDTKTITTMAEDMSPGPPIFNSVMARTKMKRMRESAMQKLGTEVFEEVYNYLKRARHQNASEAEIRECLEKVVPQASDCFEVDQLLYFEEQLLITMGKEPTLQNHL
FKBP12A/mTOR (Homo sapiens), sequence (P62942 2-108 limits assumed, other chains not shown): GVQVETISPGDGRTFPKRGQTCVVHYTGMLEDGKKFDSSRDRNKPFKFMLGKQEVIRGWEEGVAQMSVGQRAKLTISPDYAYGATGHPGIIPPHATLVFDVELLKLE
LIM domain kinase 2 (Homo sapiens), sequence (P53671 whole entry, looked up, the tested form may be a part): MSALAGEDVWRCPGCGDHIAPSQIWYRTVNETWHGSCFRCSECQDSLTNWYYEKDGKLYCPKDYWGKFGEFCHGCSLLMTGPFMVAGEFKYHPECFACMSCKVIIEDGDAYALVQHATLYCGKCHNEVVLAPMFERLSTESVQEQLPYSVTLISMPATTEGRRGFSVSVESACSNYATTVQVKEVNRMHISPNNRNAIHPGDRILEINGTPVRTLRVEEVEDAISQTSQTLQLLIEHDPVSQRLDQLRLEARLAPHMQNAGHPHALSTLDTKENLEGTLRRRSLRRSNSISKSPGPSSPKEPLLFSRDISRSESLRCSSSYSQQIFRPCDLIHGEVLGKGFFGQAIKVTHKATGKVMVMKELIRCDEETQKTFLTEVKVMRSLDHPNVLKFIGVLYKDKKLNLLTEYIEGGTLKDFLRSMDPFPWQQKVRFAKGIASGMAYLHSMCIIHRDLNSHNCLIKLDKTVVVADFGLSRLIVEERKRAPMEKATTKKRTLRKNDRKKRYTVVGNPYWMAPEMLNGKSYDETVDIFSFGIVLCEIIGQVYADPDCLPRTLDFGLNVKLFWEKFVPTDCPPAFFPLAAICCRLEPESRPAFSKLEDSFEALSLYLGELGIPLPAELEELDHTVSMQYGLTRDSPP
Serine/threonine-protein kinase WNK1 (Homo sapiens), sequence (Q9H4A3 whole entry, looked up, the tested form may be a part): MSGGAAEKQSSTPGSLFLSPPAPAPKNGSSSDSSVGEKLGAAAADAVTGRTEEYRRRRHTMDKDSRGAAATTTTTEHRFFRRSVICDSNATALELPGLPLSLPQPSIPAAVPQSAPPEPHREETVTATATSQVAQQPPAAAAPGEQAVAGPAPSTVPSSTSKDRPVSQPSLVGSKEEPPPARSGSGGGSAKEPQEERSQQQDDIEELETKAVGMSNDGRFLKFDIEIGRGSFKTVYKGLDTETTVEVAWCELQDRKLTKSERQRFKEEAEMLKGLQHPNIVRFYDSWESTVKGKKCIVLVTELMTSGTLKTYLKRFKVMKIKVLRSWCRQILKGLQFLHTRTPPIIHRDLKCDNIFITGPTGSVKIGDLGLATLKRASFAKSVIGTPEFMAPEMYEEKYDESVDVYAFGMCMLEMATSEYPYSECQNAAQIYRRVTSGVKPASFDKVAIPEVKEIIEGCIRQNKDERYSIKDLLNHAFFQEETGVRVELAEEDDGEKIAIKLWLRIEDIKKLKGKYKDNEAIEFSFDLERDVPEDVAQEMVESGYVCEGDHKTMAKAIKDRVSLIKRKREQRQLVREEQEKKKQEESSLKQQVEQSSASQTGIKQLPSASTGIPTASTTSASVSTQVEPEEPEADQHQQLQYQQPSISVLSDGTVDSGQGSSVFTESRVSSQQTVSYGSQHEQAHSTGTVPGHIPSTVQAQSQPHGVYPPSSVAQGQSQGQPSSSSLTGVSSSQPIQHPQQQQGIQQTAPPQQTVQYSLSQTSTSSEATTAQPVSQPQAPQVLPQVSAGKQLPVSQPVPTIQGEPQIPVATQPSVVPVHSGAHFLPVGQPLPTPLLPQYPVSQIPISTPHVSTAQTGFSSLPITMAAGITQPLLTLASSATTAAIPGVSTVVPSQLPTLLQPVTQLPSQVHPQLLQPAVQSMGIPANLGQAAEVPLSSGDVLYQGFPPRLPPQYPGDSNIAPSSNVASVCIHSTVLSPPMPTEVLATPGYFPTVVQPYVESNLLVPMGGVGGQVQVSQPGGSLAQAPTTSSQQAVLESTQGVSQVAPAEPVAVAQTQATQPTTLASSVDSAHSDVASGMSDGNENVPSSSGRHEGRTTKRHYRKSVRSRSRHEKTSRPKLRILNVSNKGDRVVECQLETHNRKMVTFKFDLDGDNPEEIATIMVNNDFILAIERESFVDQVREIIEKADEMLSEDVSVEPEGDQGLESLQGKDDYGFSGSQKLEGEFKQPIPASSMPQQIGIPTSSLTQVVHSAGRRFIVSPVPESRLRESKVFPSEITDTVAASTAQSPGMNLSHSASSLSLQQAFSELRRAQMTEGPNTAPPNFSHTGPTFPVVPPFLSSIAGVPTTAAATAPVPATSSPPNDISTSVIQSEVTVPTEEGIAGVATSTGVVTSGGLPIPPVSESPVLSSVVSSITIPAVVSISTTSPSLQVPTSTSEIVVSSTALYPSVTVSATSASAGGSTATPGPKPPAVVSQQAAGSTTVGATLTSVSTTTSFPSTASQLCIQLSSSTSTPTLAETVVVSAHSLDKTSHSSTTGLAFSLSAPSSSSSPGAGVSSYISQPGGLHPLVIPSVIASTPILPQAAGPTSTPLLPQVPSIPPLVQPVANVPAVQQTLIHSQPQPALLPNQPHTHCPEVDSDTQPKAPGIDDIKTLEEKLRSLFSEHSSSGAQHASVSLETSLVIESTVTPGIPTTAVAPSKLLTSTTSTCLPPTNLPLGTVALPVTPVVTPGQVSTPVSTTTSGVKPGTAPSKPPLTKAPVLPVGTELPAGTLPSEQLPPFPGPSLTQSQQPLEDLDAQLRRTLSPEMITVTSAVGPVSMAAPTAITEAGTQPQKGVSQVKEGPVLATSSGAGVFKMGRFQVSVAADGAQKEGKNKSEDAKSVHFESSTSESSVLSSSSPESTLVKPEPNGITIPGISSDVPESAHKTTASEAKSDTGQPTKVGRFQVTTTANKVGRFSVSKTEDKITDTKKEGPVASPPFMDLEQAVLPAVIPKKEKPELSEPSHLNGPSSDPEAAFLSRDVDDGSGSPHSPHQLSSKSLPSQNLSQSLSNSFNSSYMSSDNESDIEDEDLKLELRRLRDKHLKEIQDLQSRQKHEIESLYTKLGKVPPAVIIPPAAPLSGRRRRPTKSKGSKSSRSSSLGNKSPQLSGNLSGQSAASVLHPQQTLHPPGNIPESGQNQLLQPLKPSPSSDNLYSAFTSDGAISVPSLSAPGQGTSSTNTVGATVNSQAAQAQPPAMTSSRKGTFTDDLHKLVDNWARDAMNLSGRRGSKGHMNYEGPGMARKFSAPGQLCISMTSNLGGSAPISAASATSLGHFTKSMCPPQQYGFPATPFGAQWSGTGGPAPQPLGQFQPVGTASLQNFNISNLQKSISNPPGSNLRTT
Eukaryotic translation initiation factor 2-alpha kinase 3 (Homo sapiens), sequence (Q9NZJ5 whole entry): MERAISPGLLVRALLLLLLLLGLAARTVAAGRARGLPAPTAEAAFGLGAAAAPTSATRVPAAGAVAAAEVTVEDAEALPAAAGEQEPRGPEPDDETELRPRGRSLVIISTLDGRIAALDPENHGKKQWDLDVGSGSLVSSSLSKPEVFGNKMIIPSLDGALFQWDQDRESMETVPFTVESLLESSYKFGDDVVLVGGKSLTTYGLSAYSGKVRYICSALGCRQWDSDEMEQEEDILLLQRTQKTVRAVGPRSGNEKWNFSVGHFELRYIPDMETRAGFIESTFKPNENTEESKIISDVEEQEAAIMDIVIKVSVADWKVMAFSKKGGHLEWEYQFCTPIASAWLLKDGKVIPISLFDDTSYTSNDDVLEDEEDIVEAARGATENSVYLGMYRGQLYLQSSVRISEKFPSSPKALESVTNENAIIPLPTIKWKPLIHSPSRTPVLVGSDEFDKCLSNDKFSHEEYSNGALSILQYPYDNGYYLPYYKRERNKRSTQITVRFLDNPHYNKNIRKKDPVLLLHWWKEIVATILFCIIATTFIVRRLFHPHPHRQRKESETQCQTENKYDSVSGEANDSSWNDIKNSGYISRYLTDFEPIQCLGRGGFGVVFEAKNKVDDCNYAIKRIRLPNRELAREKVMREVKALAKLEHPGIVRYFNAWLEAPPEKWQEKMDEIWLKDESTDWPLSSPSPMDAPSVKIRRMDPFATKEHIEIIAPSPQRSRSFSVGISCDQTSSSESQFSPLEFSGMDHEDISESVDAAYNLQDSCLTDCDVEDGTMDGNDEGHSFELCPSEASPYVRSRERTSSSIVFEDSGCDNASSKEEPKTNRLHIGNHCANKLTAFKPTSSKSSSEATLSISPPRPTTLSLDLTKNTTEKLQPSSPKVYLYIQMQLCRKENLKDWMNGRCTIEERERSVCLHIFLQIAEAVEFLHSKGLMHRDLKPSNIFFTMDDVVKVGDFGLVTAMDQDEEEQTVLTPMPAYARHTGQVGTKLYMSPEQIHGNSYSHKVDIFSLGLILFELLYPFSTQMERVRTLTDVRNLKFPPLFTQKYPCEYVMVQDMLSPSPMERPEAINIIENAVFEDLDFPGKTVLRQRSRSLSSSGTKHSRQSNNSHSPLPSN

| SMILES | Activity [1] [%] | Activity [2] [%] | Activity [3] [%] | Activity [4] [%] | Activity [5] [%] | Activity [6] [%] | Activity [7] [%] | Activity [8] [%] | Activity [9] [%] | Activity [10] [%] | Activity [11] [%] | Activity [12] [%] | Activity [13] [%] | Activity [14] [%] | Activity [15] [%] | Activity [16] [%] | Activity [17] [%] | Activity [18] [%] | Activity [19] [%] | Activity [20] [%] | other results |
| --- | --- | --- | --- | --- | --- | --- | --- | --- | --- | --- | --- | --- | --- | --- | --- | --- | --- | --- | --- | --- | --- |
| C=CCOC(=O)c1cc(-c2ccc(/C=C3/NC(=S)NC3=O)o2)ccc1Cl | 95 | 99 | 94 | 33 | 62 | 96 | 91 | 95 | 78 | 97 | 94 | 96 | 98 | 97 | 97 | 107 | 106 | 107 | 98 | 111 | Activity [21]: 107% |
| N=C1NC(=O)/C(=C\c2ccc(-c3cccc([N+](=O)[O-])c3)o2)S1 | 101 | 98 | 97 | 44 | 55 | 101 | 89 | 99 | 100 | 91 | 98 | 108 | 102 | 92 | 107 | 87 | 85 | 95 | 103 | 95 | Activity [21]: 91% |

— ChEMBL document CHEMBL4334438, “Discovery of novel glycogen synthase kinase-3α inhibitors: Structure-based virtual screening, preliminary SAR and biological evaluation for treatment of acute myeloid leukemia” (Eur J Med Chem, 2019)
